Test results as given in US11214803B2, “Modulators of YAP1 expression” (Ionis Pharmaceuticals, Inc., priority 2019, dated 2022).
Strand notation (5' to 3'): a small letter for the sugar, then the base; units joined by * are phosphorothioate-linked, units joined directly phosphodiester-linked; [ ] holds rarer units or linkages, { } end groups; capitals alone tell only the bases. k = constrained ethyl (cEt); [5mC] = 5-methylcytosine; d = 2'-deoxy (DNA)

These substances were tested on Yap1 mRNA (assay: Antisense inhibition of human Yap1 in A-431 cells by cEt gapmers, single dose (Example 2, RTS4814)). Settings: A-431 cells, 5,000 cells per well, free uptake, 2,000 nM modified oligonucleotide, approx. 48 hours, RTS4814, normalized to RIBOGREEN; Table 4; asterisk (*) = targets amplicon region of primer probe set.
Assay type: cell-based
In short: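 Read-out is Yap1 mRNA as percent of untreated cells, by real-time RT-PCR (probe set RTS4814) normalized to total RNA via RIBOGREEN. Cells were A-431 dosed with 2,000 nM gapmer without transfection for approximately 48 hours.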
For “716355 (kG*kA*k[5mC]*dG*dG*d[5mC]*dT*dG*d[5mC]*dG*dG*dG*d[5mC]*k[5mC]*kG*kG; antisense) [Compound 716355]”, the “YAP1 (% UTC)” value was 96 % UTC.
With “716475 (k[5mC]*kT*kT*d[5mC]*d[5mC]*dA*dA*dA*dA*d[5mC]*dT*dA*dA*kG*kG*k[5mC]; antisense) [Compound 716475]” the “YAP1 (% UTC)” value was 63 % UTC.
In the case of “716385 (kT*kT*k[5mC]*d[5mC]*d[5mC]*dA*dT*d[5mC]*d[5mC]*dA*dT*d[5mC]*dA*kG*kG*kA; antisense) [Compound 716385]”, the “YAP1 (% UTC)” value is reported as 87 % UTC.
“716367 (k[5mC]*kA*kT*dG*dG*dG*d[5mC]*dA*d[5mC]*dG*dG*dT*d[5mC]*kT*kG*kG; antisense) [Compound 716367]” was tested, and the “YAP1 (% UTC)” value was 70 % UTC.
With “716469 (kG*kT*kT*dT*dG*d[5mC]*dT*d[5mC]*d[5mC]*dT*dT*dT*d[5mC]*k[5mC]*kA*kA; antisense) [Compound 716469]” the “YAP1 (% UTC)” value was 25 % UTC.

Same assay, conditions: Table 5; A-431 cells, 5,000 cells per well, free uptake, 2,000 nM modified oligonucleotide, approx. 48 hours; RTS4814; normalized to RIBOGREEN; Yap1 mRNA relative to untreated control cells
“716548 (kG*kA*kG*dT*dT*dT*d[5mC]*dA*dA*d[5mC]*dA*d[5mC]*dT*kG*kA*kT; antisense) [Compound 716548]” was tested, and the “YAP1 (% UTC)” value was 31 % UTC.

Same assay, conditions: Table 6; A-431 cells, 5,000 cells per well, free uptake, 2,000 nM modified oligonucleotide, approx. 48 hours; RTS4814; normalized to RIBOGREEN; Yap1 mRNA relative to untreated control cells
For “716393 (kT*kT*kG*d[5mC]*dT*dG*d[5mC]*dT*dG*dG*dT*dT*dG*kG*kA*kG; antisense) [Compound 716393]”, the “YAP1 (% UTC)” value was 46 % UTC.
In the case of “716354 (kT*k[5mC]*kG*d[5mC]*dT*d[5mC]*dT*d[5mC]*dA*dG*dG*dG*d[5mC]*k[5mC]*kG*kG; antisense) [Compound 716354]”, the “YAP1 (% UTC)” value is reported as 114 % UTC.
“716489 (kA*kG*kT*dT*dA*dA*dT*dT*d[5mC]*dA*dT*dG*d[5mC]*kT*k[5mC]*kG; antisense) [Compound 716489]” was tested, and the “YAP1 (% UTC)” value was 23 % UTC.

Same assay, conditions: Table 18; A-431 cells, 5,000 cells per well, free uptake, 2,000 nM modified oligonucleotide, approx. 48 hours; RTS4814; normalized to RIBOGREEN; Yap1 mRNA as percent of untreated control
“1075268 (antisense kT*kA*kT*dT*dA*dA*d[5mC]*d[5mC]*dT*dG*dG*dA*dG*kA*kG*kT) [Compound 1075268]” was tested, and the “YAP1 (% UTC)” value was 47 % UTC.
For “1076068 (k[5mC]*kT*kA*dA*dA*dA*dT*dG*dA*d[5mC]*d[5mC]*dT*dT*kA*kG*k[5mC]; antisense) [Compound 1076068]”, the “YAP1 (% UTC)” value was 73 % UTC.
With “1076164 (kT*kG*kA*dT*dA*dT*dA*dA*dG*dT*dT*dA*d[5mC]*k[5mC]*kA*kA; antisense) [Compound 1076164]” the “YAP1 (% UTC)” value was 50 % UTC.
In the case of “1076004 (kT*kA*kA*dT*dT*dT*dA*dA*dT*dG*dG*d[5mC]*dT*kT*kG*k[5mC]; antisense) [Compound 1076004]”, the “YAP1 (% UTC)” value is reported as 2 % UTC.
In the case of “1076260 (k[5mC]*kT*kT*dA*dA*dT*dT*dT*dA*dA*d[5mC]*dT*d[5mC]*k[5mC]*kT*kG; antisense) [Compound 1076260]”, the “YAP1 (% UTC)” value is reported as 3 % UTC.

Same assay, conditions: Table 19; A-431 cells, 5,000 cells per well, free uptake, 2,000 nM modified oligonucleotide, approx. 48 hours; RTS4814; normalized to RIBOGREEN; Yap1 mRNA as percent of untreated control
“1075589 (kA*kA*kT*dT*dA*dG*d[5mC]*dA*dG*dG*dG*d[5mC]*dA*kG*kA*k[5mC]; antisense) [Compound 1075589]” was tested, and the “YAP1 (% UTC)” value was 84 % UTC.
In the case of “1075365 (k[5mC]*kA*k[5mC]*dG*dA*dA*dA*dA*dT*dA*dG*dT*dT*k[5mC]*kT*k[5mC]; antisense) [Compound 1075365]”, the “YAP1 (% UTC)” value is reported as 11 % UTC.
“1075237 (antisense kG*k[5mC]*kT*dG*dA*dA*dA*dA*dT*dG*d[5mC]*dT*dA*kA*k[5mC]*kT) [Compound 1075237]” was tested, and the “YAP1 (% UTC)” value was 105 % UTC.

Same assay, conditions: Table 20; Yap1 mRNA, percent of untreated control; 3-10-3 cEt gapmers targeting SEQ ID NO.: 1 and 2
In the case of “1076326 (kG*k[5mC]*kT*dA*dA*dT*dA*dA*dT*dG*dG*dA*dA*kG*kA*kG; antisense) [Compound 1076326]”, the “YAP1 (% UTC)” value is reported as 4 % UTC.
“1074182 (antisense kG*k[5mC]*k[5mC]*d[5mC]*dG*dG*dG*dA*dT*d[5mC]*d[5mC]*dA*dT*kG*kG*k[5mC]) [Compound 1074182]” was tested, and the “YAP1 (% UTC)” value was 82 % UTC.
In the case of “1075846 (kG*kA*kT*dT*dA*dA*dG*dA*dG*d[5mC]*d[5mC]*dT*dA*kT*k[5mC]*kT; antisense) [Compound 1075846]”, the “YAP1 (% UTC)” value is reported as 96 % UTC.
In the case of “1074918 (antisense kT*k[5mC]*kA*dA*dG*dT*dT*dA*d[5mC]*dA*dT*d[5mC]*d[5mC]*k[5mC]*kG*kA) [Compound 1074918]”, the “YAP1 (% UTC)” value is reported as 60 % UTC.

Same assay, conditions: Table 21; Yap1 mRNA, percent of untreated control; 3-10-3 cEt gapmers targeting SEQ ID NO.: 1 and 2
In the case of “1074407 (antisense kT*kA*kA*dA*dG*dT*dA*dT*d[5mC]*dT*dT*dG*d[5mC]*kT*kG*kG) [Compound 1074407]”, the “YAP1 (% UTC)” value is reported as 6 % UTC.
“1075751 (kG*kA*kG*dG*dA*dA*d[5mC]*dA*dA*dG*dA*dT*d[5mC]*kT*k[5mC]*kA; antisense) [Compound 1075751]” was tested, and the “YAP1 (% UTC)” value was 72 % UTC.
With “1075111 (antisense kT*kA*kG*dG*dA*dA*dT*dA*dT*dG*dG*dG*dT*kA*kG*kT) [Compound 1075111]” the “YAP1 (% UTC)” value was 5 % UTC.
For “1074855 (antisense kG*kT*kG*d[5mC]*dA*dT*dT*dA*dA*dA*dG*dA*dA*kT*kT*k[5mC]) [Compound 1074855]”, the “YAP1 (% UTC)” value was 29 % UTC.
For “1074311 (antisense kT*kT*k[5mC]*d[5mC]*dG*d[5mC]*dA*dT*dT*dG*d[5mC]*d[5mC]*dT*kG*kT*kG) [Compound 1074311]”, the “YAP1 (% UTC)” value was 24 % UTC.

Same assay, conditions: Table 23; Yap1 mRNA as percent of untreated control; 3-10-3 cEt gapmers; single dose
For “1075081 (antisense kG*kA*kT*dT*dA*d[5mC]*dA*dA*dA*dG*dA*d[5mC]*dA*kG*k[5mC]*k[5mC]) [Compound 1075081]”, the “YAP1 (% UTC)” value was 7 % UTC.
In the case of “1076073 (k[5mC]*kT*kT*dT*dA*dA*dG*dG*dT*d[5mC]*dT*dA*dG*kT*kT*kA; antisense) [Compound 1076073]”, the “YAP1 (% UTC)” value is reported as 47 % UTC.
“1074857 (antisense kA*k[5mC]*kA*dT*dT*dG*dG*dT*dA*d[5mC]*dT*dA*dT*kA*kT*kA) [Compound 1074857]” was tested, and the “YAP1 (% UTC)” value was 25 % UTC.
With “1075721 (kT*kT*kA*dA*dA*dT*dA*d[5mC]*d[5mC]*dT*dT*d[5mC]*dT*kA*kG*k[5mC]; antisense) [Compound 1075721]” the “YAP1 (% UTC)” value was 67 % UTC.

Same assay, conditions: Table 24; Yap1 mRNA as percent of untreated control; 3-10-3 cEt gapmers targeting SEQ ID NO.: 1, and 2
With “1075210 (antisense kG*kT*kA*dT*dT*dT*dT*dA*dA*d[5mC]*d[5mC]*dT*dA*kA*kA*k[5mC]) [Compound 1075210]” the “YAP1 (% UTC)” value was 100 % UTC.
For “1075274 (antisense kA*kA*kT*dA*dA*dT*d[5mC]*d[5mC]*dA*dG*d[5mC]*d[5mC]*dT*kA*kG*kG) [Compound 1075274]”, the “YAP1 (% UTC)” value was 86 % UTC.

Same assay, conditions: Table 25; Yap1 mRNA as percent of untreated control; 3-10-3 cEt gapmers targeting SEQ ID NO.: 1, and 2
For “1074795 (k[5mC]*k[5mC]*kA*dA*dA*dT*d[5mC]*dA*dA*dT*dG*dT*dG*k[5mC]*kT*k[5mC]; antisense) [Compound 1074795]”, the “YAP1 (% UTC)” value was 4 % UTC.
“1075371 (k[5mC]*kT*kG*d[5mC]*dA*dA*dA*dA*dG*dT*dT*d[5mC]*dT*kT*kA*k[5mC]; antisense) [Compound 1075371]” was tested, and the “YAP1 (% UTC)” value was 90 % UTC.
In the case of “1076523 (antisense kA*kT*kT*dT*dA*dT*dA*dT*d[5mC]*dA*dG*dG*dT*k[5mC]*kA*kA) [Compound 1076523]”, the “YAP1 (% UTC)” value is reported as 5 % UTC.
With “1075563 (k[5mC]*k[5mC]*kA*dT*dA*dT*dA*dA*d[5mC]*d[5mC]*dA*dG*dT*kT*kT*kT; antisense) [Compound 1075563]” the “YAP1 (% UTC)” value was 12 % UTC.
For “1075787 (k[5mC]*kT*kT*dA*dA*dG*dG*dA*dT*dT*dG*dG*d[5mC]*kT*kA*kT; antisense) [Compound 1075787]”, the “YAP1 (% UTC)” value was 28 % UTC.

Same assay, conditions: Table 32; Yap1 mRNA, percent of untreated control; 3-10-3 cEt gapmers targeting SEQ ID NO.: 1, and 2
In the case of “1075442 (antisense kT*kA*kT*dT*dA*dG*dT*dT*d[5mC]*dT*dA*d[5mC]*dG*kA*kT*kT) [compound 1075442]”, the “YAP1 (% UTC)” value is reported as 71 % UTC.

Same assay, conditions: Table 33; Yap1 mRNA, percent of untreated control; 3-10-3 cEt gapmers targeting SEQ ID NO.: 1, and 2
With “1074899 (antisense kT*kA*kA*d[5mC]*dT*dT*dT*dT*dG*dG*dG*d[5mC]*dA*kA*kA*kG) [compound 1074899]” the “YAP1 (% UTC)” value was 52 % UTC.
With “1074835 (k[5mC]*kT*kT*dG*d[5mC]*dG*dA*dG*dG*dA*dT*dA*dA*kA*kA*kT; antisense) [compound 1074835]” the “YAP1 (% UTC)” value was 30 % UTC.
For “1074995 (antisense kA*kA*kA*dA*d[5mC]*dT*dA*dA*dA*dT*dG*dG*dA*k[5mC]*k[5mC]*kG) [compound 1074995]”, the “YAP1 (% UTC)” value was 50 % UTC.
“1074355 (antisense kA*kG*kG*dG*dA*d[5mC]*dA*d[5mC]*dT*dG*dT*dA*dG*k[5mC]*kT*kG) [compound 1074355]” was tested, and the “YAP1 (% UTC)” value was 55 % UTC.

Same assay, conditions: Yap1 mRNA as percent of untreated control; A-431 cells; 3-10-3 cEt gapmers targeting SEQ ID NO.: 1, and 2; Table 30
With “1076176 (k[5mC]*kT*k[5mC]*d[5mC]*dA*dA*dT*dA*dG*dG*dT*dA*dA*k[5mC]*kA*kG; antisense) [compound 1076176]” the “YAP1 (% UTC)” value was 43 % UTC.
For “1076112 (kA*kT*kT*d[5mC]*dA*dA*dA*dA*d[5mC]*d[5mC]*dA*d[5mC]*dG*kG*kA*kA; antisense) [compound 1076112]”, the “YAP1 (% UTC)” value was 98 % UTC.

Same assay, conditions: Yap1 mRNA as percent of untreated control; A-431 cells; 3-10-3 cEt gapmers targeting SEQ ID NO.: 1, and 2; Table 31
In the case of “1076305 (kT*kA*k[5mC]*dT*dA*dA*dT*dA*dA*dG*d[5mC]*d[5mC]*dT*k[5mC]*kA*k[5mC]; antisense) [compound 1076305]”, the “YAP1 (% UTC)” value is reported as 37 % UTC.
With “1075793 (k[5mC]*kA*kT*dT*dA*dG*dT*dT*dG*d[5mC]*d[5mC]*d[5mC]*dT*kG*kA*k[5mC]; antisense) [compound 1075793]” the “YAP1 (% UTC)” value was 31 % UTC.
